Here are results for 9 compounds from PubChem BioAssay (NCI).

Test systems include HT29 colon; MOLT-4 leukemia; NCI-H522 lung; NCI/ADR-RES ovarian; OVCAR-3 ovarian; OVCAR-4 ovarian; OVCAR-5 ovarian; SK-MEL-2 melanoma; SNB-75 CNS; SR leukemia.
Common to all, as to assay: NCI-60 cell line screen, 48 h

Structures are written as SMILES. Values joined by “and” are separate entries in the source; they are usually repeats but may differ in a detail not shown here. Equal values may be shown once.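 Tested at 5 concentrations; 48 h exposure; 96-well plates; endpoints linearly interpolated, else capped at highest concentration. At the GI50, growth is halved. Definition used: TGI = concentration required for complete inhibition of growth.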 A value given as a limit tells only on which side of the number the result lay.

Consider `CC(C)COC(=O)c1ccc2[nH]c(O)c(C=Nc3ccc(S(N)(=O)=O)cc3)c2c1`, for which the GI50 with HT29 colon is 1.63 µM; in the experiment on MOLT-4 leukemia it was 1.68 µM; in the experiment with NCI-H522 lung, 4.03 µM; with NCI/ADR-RES ovarian, 5.36 µM; in the experiment with OVCAR-3 ovarian, 0.802 µM; in the experiment with OVCAR-4 ovarian it was 2.39 µM. The GI50 in the experiment on OVCAR-5 ovarian was 1.87 µM; with SK-MEL-2 melanoma it was 1.73 µM; in the experiment on SNB-75 CNS, 1.77 µM; in the experiment with SR leukemia it was 0.36 µM. Also, the TGI in the experiment with HT29 colon came out at 5.21 µM; with MOLT-4 leukemia it was 11 µM; in the experiment on NCI-H522 lung, 8.5 µM; in the experiment with NCI/ADR-RES ovarian it was 21.2 µM; with OVCAR-3 ovarian it was 2.28 µM; in the experiment on OVCAR-4 ovarian, 7.79 µM. Also, the TGI in the experiment on OVCAR-5 ovarian was 13.8 µM; in the experiment on SK-MEL-2 melanoma it was 4.19 µM; with SNB-75 CNS it was 5.15 µM; with SR leukemia, 6.43 µM.

For the compound `O=[N+]([O-])c1ccc(S(=O)(=O)Cc2ccccc2)c2nonc12`, the TGI in the experiment with HT29 colon turned out to be 36.7 µM; in the experiment on MOLT-4 leukemia it was 83.8 µM; in the experiment with NCI-H522 lung, 38 µM; with NCI/ADR-RES ovarian, 68 µM; with OVCAR-3 ovarian it was 37.2 µM; in the experiment on OVCAR-4 ovarian, 34.1 µM. The TGI in the experiment with OVCAR-5 ovarian was greater than 100 µM; in the experiment on SK-MEL-2 melanoma it was 42.2 µM; with SNB-75 CNS it was 98.5 µM; in the experiment on SR leukemia, greater than 100 µM.

As for `O=C1OC(c2ccccc2)=N/C1=C\c1cccc(F)c1`, the TGI in the experiment on HT29 colon is greater than 100 µM; with MOLT-4 leukemia it was 67.9 µM; in the experiment with NCI-H522 lung, 40.1 µM; in the experiment on NCI/ADR-RES ovarian it was 69.9 µM; in the experiment with OVCAR-3 ovarian, greater than 100 µM; with OVCAR-4 ovarian, 94.9 µM. Besides, the TGI was greater than 100 µM in the experiment with OVCAR-5 ovarian, greater than 100 µM in the experiment on SK-MEL-2 melanoma, greater than 100 µM in the experiment on SNB-75 CNS and 56.4 µM in the experiment with SR leukemia.

With `O=C(O)/C=C/C(=O)N1C/C(=C\c2ccccc2)C(=O)/C(=C/c2ccccc2)C1`, the TGI in the experiment with HT29 colon was found to be 21.1 µM; in the experiment on MOLT-4 leukemia it was 9.26 µM; with NCI-H522 lung, 4.94 µM; in the experiment on NCI/ADR-RES ovarian, 61.7 µM; in the experiment on OVCAR-3 ovarian, 15.6 µM; in the experiment with OVCAR-4 ovarian it was 16.4 µM. Moreover, the TGI in the experiment on OVCAR-5 ovarian was 31.8 µM; in the experiment on SK-MEL-2 melanoma, 17.2 µM; with SNB-75 CNS it was 20.6 µM; with SR leukemia, 41.6 µM.

`OCCN1CCN(CC/C=C2\c3ccccc3Sc3ccc(Cl)cc32)CC1`: the GI50 in the experiment on HT29 colon is 1.72 µM and 1.69 µM; in the experiment with MOLT-4 leukemia it was 1.76 µM and 2.91 µM; in the experiment with NCI-H522 lung, 11.6 µM and 1.75 µM; with NCI/ADR-RES ovarian it was 10.3 µM and 8.06 µM; in the experiment on OVCAR-3 ovarian, 2.88 µM and 5.66 µM; with OVCAR-4 ovarian it was 8.38 µM and 8.18 µM. Besides, the GI50 is 3.75 µM and 11.8 µM in the experiment on OVCAR-5 ovarian; 2.75 µM and 2.26 µM in the experiment with SK-MEL-2 melanoma; 1.41 µM and 2.7 µM in the experiment on SNB-75 CNS; 1.7 µM in the experiment on SR leukemia. Moreover, the TGI was 3.92 µM and 3.42 µM with HT29 colon; 4.03 µM and 8.54 µM in the experiment on MOLT-4 leukemia; 29.1 µM and 3.38 µM in the experiment with NCI-H522 lung; 24.8 µM and 21.8 µM in the experiment on NCI/ADR-RES ovarian; 13.1 µM and 17.8 µM in the experiment with OVCAR-3 ovarian; 20.7 µM and 21.1 µM in the experiment with OVCAR-4 ovarian. The TGI was 14.1 µM and 24.9 µM in the experiment on OVCAR-5 ovarian; 5.98 µM and 4.9 µM in the experiment with SK-MEL-2 melanoma; 5.07 µM and 7.95 µM in the experiment on SNB-75 CNS; 4.59 µM in the experiment with SR leukemia.

On to `CCc1nc(N)nc(N)c1-c1ccc(Cl)c(N=CN(C)C)c1`, for which the TGI is greater than 100 µM in the experiment with HT29 colon; greater than 100 µM in the experiment on MOLT-4 leukemia; 62.7 µM in the experiment on NCI-H522 lung; greater than 100 µM in the experiment on NCI/ADR-RES ovarian; greater than 100 µM in the experiment with OVCAR-3 ovarian; greater than 100 µM in the experiment on OVCAR-4 ovarian. For the same compound, the TGI in the experiment with OVCAR-5 ovarian was greater than 100 µM; with SK-MEL-2 melanoma, greater than 100 µM; with SNB-75 CNS it was greater than 100 µM; in the experiment on SR leukemia, greater than 83.4 µM.

With `COc1cc(Cl)cc(-c2nn(-c3cccc(NC(=O)Nc4ccc(Cl)c(C(F)(F)F)c4)c3)cc2-c2ccncc2)c1`, the GI50 with HT29 colon was 1.14 µM; with MOLT-4 leukemia, 1.23 µM; in the experiment on NCI-H522 lung, 0.418 µM; in the experiment with NCI/ADR-RES ovarian it was 1.77 µM; with OVCAR-3 ovarian it was 0.451 µM; in the experiment with OVCAR-4 ovarian it was 1.8 µM. Moreover, the GI50 with OVCAR-5 ovarian was 2.13 µM; in the experiment with SK-MEL-2 melanoma, 1.79 µM; with SNB-75 CNS, 1.77 µM; with SR leukemia it was 1.08 µM. Moreover, the TGI is 4.38 µM in the experiment with HT29 colon; 4.65 µM with MOLT-4 leukemia; 2.5 µM in the experiment with NCI-H522 lung; 11.6 µM in the experiment on NCI/ADR-RES ovarian; 2.66 µM in the experiment on OVCAR-3 ovarian; 28.8 µM in the experiment with OVCAR-4 ovarian. The TGI was determined as 7.15 µM with OVCAR-5 ovarian, 4.21 µM with SK-MEL-2 melanoma, 11.1 µM in the experiment on SNB-75 CNS and 4.38 µM with SR leukemia.

For `Cn1cnc([N+](=O)[O-])c1Sc1ncn[nH]1`, the GI50 in the experiment on HT29 colon is greater than 100 µM; with MOLT-4 leukemia, greater than 100 µM; in the experiment on NCI-H522 lung, 19.8 µM; in the experiment with NCI/ADR-RES ovarian it was greater than 100 µM; in the experiment on OVCAR-3 ovarian, 47.3 µM; with OVCAR-4 ovarian, 72 µM. The GI50 in the experiment with OVCAR-5 ovarian is greater than 100 µM; in the experiment on SK-MEL-2 melanoma it was 40.9 µM; in the experiment on SNB-75 CNS, greater than 100 µM; in the experiment with SR leukemia, 35.1 µM. The TGI with HT29 colon, in the experiment on MOLT-4 leukemia, in the experiment with NCI-H522 lung, with NCI/ADR-RES ovarian, with OVCAR-3 ovarian and in the experiment on OVCAR-4 ovarian was greater than 100 µM throughout. Besides, the TGI in the experiment with OVCAR-5 ovarian, in the experiment on SK-MEL-2 melanoma, in the experiment on SNB-75 CNS and with SR leukemia was greater than 100 µM throughout.

As for `O=C1OC(CN2CCOCC2)CN1/N=C/c1ccc([N+](=O)[O-])o1` (stereo not given), the TGI was greater than 100 µM in the experiment with HT29 colon; greater than 100 µM in the experiment on MOLT-4 leukemia; 72.3 µM with NCI-H522 lung; greater than 100 µM with NCI/ADR-RES ovarian; 67.4 µM in the experiment on OVCAR-3 ovarian; greater than 100 µM in the experiment on OVCAR-4 ovarian. The TGI in the experiment with OVCAR-5 ovarian, in the experiment on SK-MEL-2 melanoma, in the experiment with SNB-75 CNS and in the experiment with SR leukemia was greater than 100 µM each time.
